The source of these data is patent US20210283217A1, “NEUROMODULATING COMPOSITIONS AND RELATED THERAPEUTIC METHODS FOR THE TREATMENT OF INFLAMMATORY AND AUTOIMMUNE DISEASES” (Flagship Pioneering Innovations V, Inc., priority 2016, published 2021).

Assay [1] deals with primary human T cells. Kind of assay: T cell activation and cytokine secretion assay (LEGENDplex). It is filed as cell-based. On the procedure:
Peripheral blood mononuclear cells (PBMCs) were isolated from whole blood by ficoll density separation. Briefly, blood was diluted 1:2 with 0.5 mM EDTA solution in PBS, loaded onto a Ficoll-filled Leucosep tube (Greiner Bio-One), and centrifuged for 20 minutes at 1000×g. After centrifugation, the leukocyte/PBMC layer on top of the separation medium was collected and sequentially washed three times with 0.5 mM EDTA solution in PBS. T cells were isolated from PBMCs using magnetic bead-based separation following vendor specification, e.g., Biolegend MojoSort Human CD4/CD8 Naïve T Cell Isolation Kit protocol. In brief, the PBMCs were labeled with biotinylated antibodies against cell surface receptors for cells not in the population of interest. The labeled cells are then captured by streptavidin-coated magnetic beads and removed by magnetic incubation. The uncaptured cells that flow through the magnetic separation are predominantly comprised of the population of interest, in this instance CD3+ T cells. T cells were stained with a 5 μM solution of Tag-it Violet™ dye (BioLegend) for 20 minutes protected from light. The stain was quenched by incubating the cells in cell culture medium containing 10% FBS (complete media). Stained cells were plated on tissue culture plates and sub-maximally activated with concanavalin A (con A) added to the culture medium. Cells were plated at 0.1×10^6 cells well. […] Cells were collected at 24, 48, and 72 hrs. Supernatants were collected at 24, 48, and 72 hrs and cytokine secretion was analyzed by flow cytometry using a LEGENDplex assay (BioLegend). In brief, following manufacturer's protocol, beads pre-coated with antibodies specific to various cytokines were incubated with cell supernatant. […] The beads were then stained and the captured cytokine composition assessed by flow cytometry.

Assay [2] deals with macrophages. Kind of assay: Macrophage activation and cytokine secretion assay (M1/M2 polarization). It is filed as cell-based, human. On the procedure: Peripheral blood mononuclear cells (PBMCs) were isolated from whole blood by ficoll density separation. Briefly, blood was diluted 1:2 with 0.5 mM EDTA solution in PBS, loaded onto a Ficoll-filled Leucosep tube (Greiner Bio-One), and centrifuged for 20 minutes at 1000×g. After centrifugation, the leukocyte/PBMC layer was collected and sequentially washed three times with 0.5 mM EDTA solution in PBS.
Monocytes (CD14+) were isolated from PBMCs using magnetic bead-based separation following vendor specifications, e.g., Biolegend MojoSort Human CD14 Selection Kit protocol. In brief, PBMCs were labeled with biotinylated antibodies against cell surface receptors for cells not in the population of interest. The labeled cells are then captured by streptavidin-coated magnetic beads and removed by magnetic incubation. The uncaptured cells that flow through the magnetic separation are predominantly comprised of the population of interest, in this case CD14+ monocytes.
Monocytes were differentiated into macrophages by culturing in DMEM complete medium containing 10% FBS for seven days in the presence of 40 ng/mL human M-CSF. Media was changed on day 1 and day 4. On Day 4, macrophages were polarized to various subtypes as follows: M0—incubated with 40 ng/mL M-CSF; M1—cultured with 40 ng/mL M-CSF, 20 ng/mL IFNγ, and 50 ng/mL LPS; M2—incubated with 40 ng/mL M-CSF, 20 ng/mL IL4, 20 ng/mL IL10, and 20 ng/mL TFGB. On day 7, cells were harvested by scraping them from the tissue culture plates and transferring them to 96-well plates.
Supernatants were collected at 24, 48, and 72 hrs and cytokine secretion was analyzed by flow cytometry using a LEGENDplex assay (BioLegend). In brief, following manufacturer's protocol, beads that are pre-coated with antibodies specific to various cytokines were incubated with cell supernatant. […] The beads were then stained and the captured cytokine composition assessed by flow cytometry.
M1 macrophage polarization is defined as increase in production of IL-12, TNF, IL-6, IL-8, IL-1B, MCP-1 and CCL2. Additionally, markers of M1 polarization that can be detected by RNA include Nos2. M2 polarization is defined as increase in IL-10 and/or a decrease in the M1 cytokines listed above. Additionally, markers of M2 polarization that can be detected by RNA include Arg1, IDO, PF4, CCL24, IL10, and IL4Ralpha.

Assay [3] can be described thus: Treatment of multiple sclerosis patient, MRI lesions. It is filed as in vivo, human. To be noted: MS patient; oral 5 mg/day; MRI 3-6 month after treatment initiation.
Method: A patient is diagnosed with multiple sclerosis (MS) by MRI criteria of >2 lesions. The patient is treated orally with propranolol at a dose regimen of 5 mg/day. An MRI scan is administered 3-6 month after treatment initiation. Further MRI scans are obtained at intervals of 6-12 months.
In assay [4] the test system is NK cells. Kind of assay: NK cell ADCC against trastuzumab-coated Her2 expressing target cells. It is filed as cell-based, human. To be noted: compared with NK cells pre-treated with beta adrenergic antagonist (nadolol or propranolol) prior to the agonist. The protocol: Primary Natural Killer (NK) cells are isolated from human peripheral blood using a magnetic bead-based separation kit that negatively selects NK cells by sequestering other defined cell types (T, B, monocytes, etc.). Isolated NK cells are incubated with a target cell line, for example a Her2 expressing cancer cell line that has been pre-coated with trastuzumab, an anti-Her2 antibody, at a range of target-to-effector cell ratios. Following antibody-dependent cell cytotoxicity (ADCC)—antibody-mediated killing of the target cells by the NK cells, the number of surviving target cells is assessed by a fluorescent viability stain.

The test system of assay [5] is T cells in the lymph node. Kind of assay: Lymph node remodeling by hock injection, flow cytometry of lymph node cells. It is filed as in vivo, C57BL/6J mice. The settings on record: hock injection 48.5 nmol followed by quinpirole 0.1 nmol; 24 hours. For orientation: In flow cytometry, cells or beads pass a laser one at a time.
Method: 24 hours after hock injection, brachial lymph nodes (LN) were harvested in culture medium (RPMI+10% FBS). LNs were transferred to 24-well tissue culture plates containing 0.5 mL LN digestion buffer (RPMI, 2% FBS, collagenase D (3.3 mg/mL), and DNAse I (40 ug/mL)). LN capsules were manually opened with two syringe (26G) needles and the LNs were incubated in digestion buffer for 15 minutes. Digested LNs were filtered with a 40 μM cell strainer and tissues were smashed with the plunger of a 5 mL syringe. Collected cells were washed in culture medium and plated for assays. Total number of viable cells were assessed by staining with viability dye eFluor 780 (eBioscience). Surface markers of various immune cell subsets were analyzed by staining the cells with antibodies for cell identity (CD3, CD4, CD8, CD19), for the inflammatory marker CD69, and the migratory marker CCR7. The cells were then assayed by flow cytometry.
Setting [6] is: T cells from two different donors, 72 hours.
The mark [7] stands for this setting: T cells from two different donors, multiple time points.
The mark [8] stands for this setting: low sub-nanomolar concentrations, 72 hours post treatment.

For `CC(C)NCC(O)c1ccc(O)c(O)c1` (centres unmarked) [isoproterenol], in assay [1] (setting [6]), the “T cell production of pro-inflammatory cytokine IFNγ (FIG. 6A)” value is “decreased”, the “T cell production of pro-inflammatory cytokine IL-10 (FIG. 6C)” value was “decreased” and the “T cell production of pro-inflammatory cytokine TNFα (FIG. 6B)” value is given as “decreased”. In assay [1] (setting [7]), the “T cell production of pro-inflammatory cytokine IFNγ” value was “decrease”, the “T cell production of pro-inflammatory cytokine IL-10” value was “decrease” and the “T cell production of pro-inflammatory cytokine TNFα” value was “decrease”. For the same compound, the “transcript of NOS2 in macrophages” value in assay [2] (M1 marker) is reported as “decrease”. In assay [2] (M2 marker), the “transcript for Arg1 in macrophages” value is “increase” and the “transcript for IL-10 in macrophages” value is listed as “increase”. In addition, the macrophage polarization phenotype result in assay [2] (monocyte-derived macrophages, dilutions from 10 μM to 1 nM) is recorded as “polarized toward an M2 phenotype”.

Turning to `NCCc1ccc(O)c(O)c1` [dopamine, Dopamine], the “T cell production of pro-survival cytokine IL-2” value in assay [1] (24 and 48 hours post-treatment, nanomolar concentrations) is reported as “increase”. Moreover, in assay [1] (setting [8]), the “T cell production of pro-inflammatory cytokine IFNγ” value is on record as “increase”, the “T cell production of pro-inflammatory cytokine IL-5” value was “increase”, the “T cell production of pro-inflammatory cytokine IL-6” value is reported as “increase” and the “T cell production of pro-inflammatory cytokine IL-10” value is on record as “increase”. For the same compound, the “T cell production of pro-inflammatory cytokine IL-13” value in assay [1] (setting [8]) is “increase”.

Consider `CC(C)NCC(O)COc1cccc2ccccc12` (centres unmarked) [propranolol], for which, in assay [3], the “Gadolinium (Gd)-enhancing T1 lesions and/or new or enlarging (active) T2 lesions” value is recorded as “decrease”.

Regarding `CC(C)NCC(O)c1cc(O)cc(O)c1` (centres unmarked) [metaproterenol], the “ADCC induced by treated NK cells” value in assay [4] is listed as “significantly less ADCC”.

In the case of `O=C(CCCN1CCC(O)(c2ccc(Cl)cc2)CC1)c1ccc(F)cc1` [haloperidol, Haloperidol], in assay [5], the “quinpirole-induced increase of CCR7+ T cells in the lymph node after pre-treatment with antagonist” value was “inhibited”.

Take neuropeptide Y: the “T cell production of cytokine IL-4” value in assay [1] (sub-nanomolar concentrations, 48 hours post-treatment) is given as “increase”.
